What was measured:
Assay type in all cases: functional
Rattus norvegicus [1] = experiment: Antihypersensitivity in oxaliplatin-induced Sprague-Dawley rat hyperalgesia model assessed as weight tolerated on posterior paw at 3.43 mg/kg, sc administered daily for 7 days post oxaliplatin challenge measured on day 7 post last dose by analgesimeter (reference value: 46.1 +/- 0.5 g)
Rattus norvegicus [2] = experiment: Antihypersensitivity in oxaliplatin-induced Sprague-Dawley rat hyperalgesia model assessed as increase in weight tolerated on posterior paw at 3.43 mg/kg, sc administered daily up to day 13 measured on day 14 post last dose by analgesimeter relative to control
Rattus norvegicus [3] = experiment: Antihypersensitivity in oxaliplatin-induced Sprague-Dawley rat thermal hyperalgesia model assessed as paw withdrawal latency time at 3.43 mg/kg, sc administered daily up to day 6 measured on day 7 post last dose by plantar test (reference value: 9 +/- 1 secs)
Rattus norvegicus [4] = experiment: Antihypersensitivity in oxaliplatin-induced Sprague-Dawley rat thermal hyperalgesia model assessed as paw withdrawal latency time at 3.43 mg/kg, sc administered daily up to day 13 measured on day 14 post last dose by plantar test (reference value: 10.6 +/- 0.5 secs)
Rattus norvegicus [5] = experiment: Antiallodynic activity in oxaliplatin-induced Sprague-Dawley rat allodynia model assessed as paw withdrawal latency time at 3.43 mg/kg, sc administered daily up to day 6 measured on day 7 post last dose by Von Frey test (reference value: 12.4 +/- 1.2 secs)
Rattus norvegicus [6] = experiment: Antiallodynic activity in oxaliplatin-induced Sprague-Dawley rat allodynia model assessed as paw withdrawal latency time at 3.43 mg/kg, sc administered daily up to day 6 measured on day 7 post last dose by cold plate test (reference value: 14.3 +/- 0.3 secs)
Rattus norvegicus [7] = experiment: Antiallodynic activity in oxaliplatin-induced Sprague-Dawley rat allodynia model assessed as paw withdrawal latency time at 3.43 mg/kg, sc administered daily up to day 13 measured on day 14 post last dose by cold plate test (reference value: 12 +/- 1.2 secs)
Rattus norvegicus [8] = experiment: Antihypersensitivity in oxaliplatin-induced Sprague-Dawley rat hyperalgesia model assessed as weight tolerated on posterior paw at 3.42 mg/kg, sc administered daily for 7 days post oxaliplatin challenge measured on day 7 post last dose by analgesimeter (reference value: 46.1 +/- 0.5 g)
Rattus norvegicus [9] = experiment: Antihypersensitivity in oxaliplatin-induced Sprague-Dawley rat hyperalgesia model assessed as increase in weight tolerated on posterior paw at 3.42 mg/kg, sc administered daily up to day 13 measured on day 14 post last dose by analgesimeter relative to control
Rattus norvegicus [10] = experiment: Antihypersensitivity in oxaliplatin-induced Sprague-Dawley rat thermal hyperalgesia model assessed as paw withdrawal latency time at 3.42 mg/kg, sc administered daily up to day 6 measured on day 7 post last dose by plantar test (reference value: 9 +/- 1 secs)
Rattus norvegicus [11] = experiment: Antihypersensitivity in oxaliplatin-induced Sprague-Dawley rat thermal hyperalgesia model assessed as paw withdrawal latency time at 3.42 mg/kg, sc administered daily up to day 13 measured on day 14 post last dose by plantar test (reference value: 10.6 +/- 0.5 secs)
Rattus norvegicus [12] = experiment: Antiallodynic activity in oxaliplatin-induced Sprague-Dawley rat allodynia model assessed as increase in paw withdrawal latency time at 3.42 mg/kg, sc administered daily up to day 13 measured on day 14 post last dose by Von Frey test relative to control
Rattus norvegicus [13] = experiment: Antiallodynic activity in oxaliplatin-induced Sprague-Dawley rat allodynia model assessed as paw withdrawal latency time at 3.42 mg/kg, sc administered daily up to day 6 measured on day 7 post last dose by cold plate test (reference value: 14.3 +/- 0.3 secs)
Rattus norvegicus [14] = experiment: Antiallodynic activity in oxaliplatin-induced Sprague-Dawley rat allodynia model assessed as paw withdrawal latency time at 3.42 mg/kg, sc administered daily up to day 13 measured on day 14 post last dose by cold plate test (reference value: 12 +/- 1.2 secs)
Rattus norvegicus [15] = experiment: Antihypersensitivity in oxaliplatin-induced Sprague-Dawley rat hyperalgesia model assessed as weight tolerated on posterior paw at 3.37 mg/kg, sc administered daily for 7 days post oxaliplatin challenge measured on day 7 post last dose by analgesimeter (reference value: 46.1 +/- 0.5 g)
Rattus norvegicus [16] = experiment: Antihypersensitivity in oxaliplatin-induced Sprague-Dawley rat hyperalgesia model assessed as increase in weight tolerated on posterior paw at 3.37 mg/kg, sc administered daily up to day 13 measured on day 14 post last dose by analgesimeter relative to control
Rattus norvegicus [17] = experiment: Antihypersensitivity in oxaliplatin-induced Sprague-Dawley rat thermal hyperalgesia model assessed as paw withdrawal latency time at 3.37 mg/kg, sc administered daily up to day 6 measured on day 7 post last dose by plantar test (reference value: 9 +/- 1 secs)
Rattus norvegicus [18] = experiment: Antihypersensitivity in oxaliplatin-induced Sprague-Dawley rat thermal hyperalgesia model assessed as paw withdrawal latency time at 3.37 mg/kg, sc administered daily up to day 13 measured on day 14 post last dose by plantar test (reference value: 10.6 +/- 0.5 secs)
Rattus norvegicus [19] = experiment: Antiallodynic activity in oxaliplatin-induced Sprague-Dawley rat allodynia model assessed as paw withdrawal latency time at 3.37 mg/kg, sc administered daily up to day 6 measured on day 7 post last dose by Von Frey test (reference value: 12.4 +/- 1.2 secs)
Rattus norvegicus [20] = experiment: Antiallodynic activity in oxaliplatin-induced Sprague-Dawley rat allodynia model assessed as increase in paw withdrawal latency time at 3.37 mg/kg, sc administered daily up to day 13 measured on day 14 post last dose by Von Frey test relative to control
Rattus norvegicus [21] = experiment: Antiallodynic activity in oxaliplatin-induced Sprague-Dawley rat allodynia model assessed as increase in paw withdrawal latency time at 3.43 mg/kg, sc administered daily up to day 13 measured on day 14 post last dose by Von Frey test relative to control
Rattus norvegicus [22] = experiment: Antiallodynic activity in oxaliplatin-induced Sprague-Dawley rat allodynia model assessed as paw withdrawal latency time at 3.37 mg/kg, sc administered daily up to day 6 measured on day 7 post last dose by cold plate test (reference value: 14.3 +/- 0.3 secs)
Rattus norvegicus [23] = experiment: Antiallodynic activity in oxaliplatin-induced Sprague-Dawley rat allodynia model assessed as paw withdrawal latency time at 3.37 mg/kg, sc administered daily up to day 13 measured on day 14 post last dose by cold plate test (reference value: 12 +/- 1.2 secs)
Rattus norvegicus [24] = experiment: Antihypersensitivity in oxaliplatin-induced Sprague-Dawley rat hyperalgesia model assessed as weight tolerated on posterior paw at 3.28 mg/kg, sc administered daily for 7 days post oxaliplatin challenge measured on day 7 post last dose by analgesimeter (reference value: 46.1 +/- 0.5 g)
Rattus norvegicus [25] = experiment: Antihypersensitivity in oxaliplatin-induced Sprague-Dawley rat hyperalgesia model assessed as weight tolerated on posterior paw at 3.28 mg/kg, sc administered daily up to day 13 measured on day 14 post last dose by analgesimeter (reference value: 44.7 +/- 1.2 g)
Rattus norvegicus [26] = experiment: Antihypersensitivity in oxaliplatin-induced Sprague-Dawley rat thermal hyperalgesia model assessed as paw withdrawal latency time at 3.28 mg/kg, sc administered daily up to day 6 measured on day 7 post last dose by plantar test (reference value: 9 +/- 1 secs)
Rattus norvegicus [27] = experiment: Antihypersensitivity in oxaliplatin-induced Sprague-Dawley rat thermal hyperalgesia model assessed as paw withdrawal latency time at 3.28 mg/kg, sc administered daily up to day 13 measured on day 14 post last dose by plantar test (reference value: 10.6 +/- 0.5 secs)
Rattus norvegicus [28] = experiment: Antiallodynic activity in oxaliplatin-induced Sprague-Dawley rat allodynia model assessed as increase in paw withdrawal latency time at 3.28 mg/kg, sc administered daily up to day 6 measured on day 7 post last dose by Von Frey test relative to control
Rattus norvegicus [29] = experiment: Antiallodynic activity in oxaliplatin-induced Sprague-Dawley rat allodynia model assessed as paw withdrawal latency time at 3.28 mg/kg, sc administered daily up to day 13 measured on day 14 post last dose by Von Frey test (reference value: 11.6 +/- 0.5 secs)
Rattus norvegicus [30] = experiment: Antiallodynic activity in oxaliplatin-induced Sprague-Dawley rat allodynia model assessed as paw withdrawal latency time at 3.28 mg/kg, sc administered daily up to day 6 measured on day 7 post last dose by cold plate test (reference value: 14.3 +/- 0.3 secs)
Rattus norvegicus [31] = experiment: Antiallodynic activity in oxaliplatin-induced Sprague-Dawley rat allodynia model assessed as paw withdrawal latency time at 3.28 mg/kg, sc administered daily up to day 13 measured on day 14 post last dose by cold plate test (reference value: 12 +/- 1.2 secs)
Rattus norvegicus [32] = experiment: Antihypersensitivity in oxaliplatin-induced Sprague-Dawley rat hyperalgesia model assessed as increase in weight tolerated on posterior paw at 3 mg/kg, sc administered daily for 7 days post oxaliplatin challenge measured on day 7 post last dose by analgesimeter relative to control
Rattus norvegicus [33] = experiment: Antihypersensitivity in oxaliplatin-induced Sprague-Dawley rat hyperalgesia model assessed as increase in weight tolerated on posterior paw at 3 mg/kg, sc administered daily for 14 days post oxaliplatin challenge measured on day 14 post last dose by analgesimeter relative to control
Rattus norvegicus [34] = experiment: Antihypersensitivity in oxaliplatin-induced Sprague-Dawley rat thermal hyperalgesia model assessed as paw withdrawal latency time at 3 mg/kg, sc administered daily up to day 6 measured on day 7 post last dose by plantar test (reference value: 9 +/- 1 secs)
Rattus norvegicus [35] = experiment: Antihypersensitivity in oxaliplatin-induced Sprague-Dawley rat thermal hyperalgesia model assessed as paw withdrawal latency time at 3 mg/kg, sc administered daily up to day 13 measured on day 14 post last dose by plantar test (reference value: 10.6 +/- 0.5 secs)
Rattus norvegicus [36] = experiment: Antiallodynic activity in oxaliplatin-induced Sprague-Dawley rat allodynia model assessed as increase in paw withdrawal latency time at 3 mg/kg, sc administered daily up to day 6 measured on day 7 post last dose by Von Frey test relative to control
Rattus norvegicus [37] = experiment: Antiallodynic activity in oxaliplatin-induced Sprague-Dawley rat allodynia model assessed as increase in paw withdrawal latency time at 3 mg/kg, sc administered daily up to day 13 measured on day 14 post last dose by Von Frey test relative to control
Rattus norvegicus [38] = experiment: Antiallodynic activity in oxaliplatin-induced Sprague-Dawley rat allodynia model assessed as paw withdrawal latency time at 3 mg/kg, sc administered daily up to day 6 measured on day 7 post last dose by cold plate test (reference value: 14.3 +/- 0.3 secs)
Rattus norvegicus [39] = experiment: Antiallodynic activity in oxaliplatin-induced Sprague-Dawley rat allodynia model assessed as paw withdrawal latency time at 3 mg/kg, sc administered daily up to day 13 measured on day 14 post last dose by cold plate test (reference value: 12 +/- 1.2 secs)
Rattus norvegicus [40] = experiment: Antiallodynic activity in oxaliplatin-induced Sprague-Dawley rat allodynia model assessed as paw withdrawal latency time at 3.42 mg/kg, sc administered daily up to day 6 measured on day 7 post last dose by Von Frey test (reference value: 12.4 +/- 1.2 secs)

## c1ccc(-c2ccc(SCc3nc4ccccc4s3)nn2)nc1
Rattus norvegicus [1]
  Activity: 54.7 g
Rattus norvegicus [2]
  Activity: 72.5%
Rattus norvegicus [3]
  Time: 14.3 s
Rattus norvegicus [4]
  Time: 15.8 s
Rattus norvegicus [5]
  Time: 16.4 s
Rattus norvegicus [6]
  Time: 15.8 s
Rattus norvegicus [7]
  Time: 16.3 s

## c1ccc(-c2ccc(SCc3cc4ccccc4s3)nn2)nc1
Rattus norvegicus [8]
  Activity: 55.3 g
Rattus norvegicus [9]
  Activity: 86.2%
Rattus norvegicus [10]
  Time: 12.8 s
Rattus norvegicus [11]
  Time: 15.1 s
Rattus norvegicus [12]
  Activity: 64.3%
Rattus norvegicus [13]
  Time: 17.8 s
Rattus norvegicus [14]
  Time: 17.5 s

## c1ccc(-c2ccc(SCc3ccc4ccccc4n3)nn2)nc1
Rattus norvegicus [15]
  Activity: 48.4 g
Rattus norvegicus [16]
  Activity: 31.7%
Rattus norvegicus [17]
  Time: 11.6 s
Rattus norvegicus [18]
  Time: 13.7 s
Rattus norvegicus [19]
  Time: 13.5 s
Rattus norvegicus [20]
  Activity: 33%
Rattus norvegicus [21]
  Activity: 67.8%
Rattus norvegicus [22]
  Time: 14.5 s
Rattus norvegicus [23]
  Time: 15.6 s

## c1ccc(-c2ccc(SCc3cccc4nonc34)nn2)nc1
Rattus norvegicus [24]
  Activity: 58.6 g
Rattus norvegicus [25]
  Activity: 62.8 g
Rattus norvegicus [26]
  Time: 15.2 s
Rattus norvegicus [27]
  Time: 18.7 s
Rattus norvegicus [28]
  Activity: 62.8%
Rattus norvegicus [29]
  Time: 23.8 s
Rattus norvegicus [30]
  Time: 19.4 s
Rattus norvegicus [31]
  Time: 22 s

## Cc1ccccc1CSc1ccc(-c2ccccn2)nn1
Rattus norvegicus [32]
  Activity: 67.1%
Rattus norvegicus [33]
  Activity: 76.4%
Rattus norvegicus [34]
  Time: 14.1 s
Rattus norvegicus [35]
  Time: 18.3 s
Rattus norvegicus [36]
  Activity: 51.3%
Rattus norvegicus [37]
  Activity: 75.9%
Rattus norvegicus [38]
  Time: 17 s
Rattus norvegicus [39]
  Time: 22.5 s

## c1ccc(-c2ccc(SCc3cccc4cccnc34)nn2)nc1
Rattus norvegicus [15]
  Activity: 51.3 g
Rattus norvegicus [16]
  Activity: 44.3%
Rattus norvegicus [17]
  Time: 12.5 s
Rattus norvegicus [35]
  Time: 13.8 s
Rattus norvegicus [19]
  Time: 17.6 s
Rattus norvegicus [20]
  Activity: 68.7%
Rattus norvegicus [40]
  Time: 18.8 s
Rattus norvegicus [22]
  Time: 18 s
Rattus norvegicus [23]
  Time: 18 s

## c1ccc(-c2ccc(SCc3ccc4ccccc4c3)nn2)nc1
Rattus norvegicus [15]
  Activity: 51.9 g
Rattus norvegicus [16]
  Activity: 40.1%
Rattus norvegicus [17]
  Time: 14.2 s
Rattus norvegicus [35]
  Time: 15.5 s
Rattus norvegicus [19]
  Time: 17.6 s
Rattus norvegicus [20]
  Activity: 53%
Rattus norvegicus [22]
  Time: 16 s
Rattus norvegicus [23]
  Time: 16.5 s

From ChEMBL document CHEMBL4049462, “Synthesis and Biological Evaluation of Novel Neuroprotective Pyridazine Derivatives as Excitatory Amino Acid Transporter 2 (EAAT2) Activators” (2017)
